Patent US20080171716A1, “NUCLEIC ACID MODULATION OF TOLL-LIKE RECEPTOR-MEDIATED IMMUNE STIMULATION” (Protiva Biotherapeutics, Inc., priority 2006, published 2008)

Target: T1, TLR9 (Mus musculus, UniProt Q9EQU3)
T1 construct: endogenous in cells; host or cells: Flt3L-derived dendritic cells cultured from bone marrow of female Balb/C mice
T1 sequence (Q9EQU3 26-1032): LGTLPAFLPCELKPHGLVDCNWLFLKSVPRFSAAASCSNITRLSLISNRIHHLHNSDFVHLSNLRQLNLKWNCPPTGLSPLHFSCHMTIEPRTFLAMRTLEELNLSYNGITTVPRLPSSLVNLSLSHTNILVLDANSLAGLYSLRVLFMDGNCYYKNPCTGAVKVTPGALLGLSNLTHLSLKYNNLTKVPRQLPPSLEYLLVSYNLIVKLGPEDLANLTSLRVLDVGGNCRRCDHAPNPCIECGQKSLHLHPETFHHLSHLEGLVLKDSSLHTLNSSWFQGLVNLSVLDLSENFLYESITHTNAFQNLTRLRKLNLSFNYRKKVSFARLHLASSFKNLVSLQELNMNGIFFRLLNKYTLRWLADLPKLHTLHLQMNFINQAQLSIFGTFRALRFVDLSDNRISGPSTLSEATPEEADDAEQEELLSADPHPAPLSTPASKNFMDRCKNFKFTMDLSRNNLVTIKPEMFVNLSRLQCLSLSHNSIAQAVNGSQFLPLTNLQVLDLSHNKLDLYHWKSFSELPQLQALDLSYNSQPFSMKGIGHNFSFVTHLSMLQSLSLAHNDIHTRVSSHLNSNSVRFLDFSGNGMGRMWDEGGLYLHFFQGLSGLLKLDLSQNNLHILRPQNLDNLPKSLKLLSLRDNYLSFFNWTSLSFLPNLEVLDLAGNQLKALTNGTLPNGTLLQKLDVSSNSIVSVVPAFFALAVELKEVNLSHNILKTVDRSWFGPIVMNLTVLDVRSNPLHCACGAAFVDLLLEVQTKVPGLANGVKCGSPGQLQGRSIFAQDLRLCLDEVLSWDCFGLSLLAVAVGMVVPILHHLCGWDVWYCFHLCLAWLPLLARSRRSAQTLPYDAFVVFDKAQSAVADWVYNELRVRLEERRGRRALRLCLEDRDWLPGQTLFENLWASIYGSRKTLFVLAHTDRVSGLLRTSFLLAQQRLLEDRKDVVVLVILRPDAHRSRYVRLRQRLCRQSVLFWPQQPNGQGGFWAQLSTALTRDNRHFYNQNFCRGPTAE
Experiment: CpG ODN (TLR9 agonist)-induced IFN-α in murine Flt3L-derived dendritic cells
Assay type: cell-based
Settings: murine Flt3L DC; 1:1 molar ratio
Protocol: Lipid Encapsulation of RNA and ODN. RNA or ODN were encapsulated in liposomes by a process of spontaneous vesicle formation as described in Judge et al., supra, and Jeffs et al., Pharm. Res., 22:362-372 (2005).
Flt3L-derived dendritic cells (DC) were generated as described in Gilliet et al., J. Exp. Med., 195:953-958 (2002), using 100 ng/ml murine Flt3-ligand (Peprotech) supplemented media. Femurs and tibiae of female Balb/C mice were isolated and rinsed in sterile PBS. The ends of bones were cut and marrow harvested in complete media (RPMI 1640, 10% heat inactivated FBS, 1% penicillin/streptomycin, 2 mM L-glutamine, 1 mM sodium pyruvate, 25 mM HEPES, 50 μM 2-mercaptoethanol). Bone marrow cells were passed through a 70 μm strainer and centrifuged at 1000 rpm for 7 min. and resuspended in complete media supplemented with 100 ng/ml murine Flt3L to 2×10^6 cells/ml. 2 ml of cells were seeded in 6-well plates and 1 ml fresh media was added every two to three days. On day 9 of culture, non-adherent cells were washed in complete media and plated into 96-well plates at concentrations ranging from 0.5 to 2.5×10^5 cells/well.
Loxoribine (InvivoGen; San Diego, Calif.), polyIC (Sigma-Aldrich; St. Louis, Mo.), and formulated nucleic acids were diluted in PBS and added to either human PBMC or Flt3L DC cultures. Cells were incubated 24 h at 37° C. before supernatants were assayed for cytokines by ELISA.
Cytokine ELISA. All cytokines were quantified using sandwich ELISA kits according to the manufacturer's instructions. These were mouse and human IFN-α (PBL Biomedical; Piscataway, N.J.) and IL-6 (eBioscience; San Diego, Calif.).

polyUmod21: 2′OMe-uridine homopolymer of 21 nucleotides in length (UUUUUUUUUUUUUUUUUUUUU; all 2'-O-methyl, backbone not given here)
level of IFN-α induction by Type B ODN (1826) when co-formulated: no inhibitory effect
level of IFN-α induction by Type C ODN (M362) when co-formulated: no inhibitory effect
